Data from ChEMBL document CHEMBL2440076, “New triarylpyrazoles as broad-spectrum anticancer agents: design, synthesis, and biological evaluation” (Eur J Med Chem, 2013).
pIC50: −log10 of the molar value.

What was measured:
Malme-3M = test: Growth inhibition of human MALME-3M cells assessed as cell growth at 10 uM after 48 hrs by sulforhodamine B assay; format: functional; conditions: read-out: Activity
UO-31 = test: Growth inhibition of human UO31 cells assessed as cell growth at 10 uM after 48 hrs by sulforhodamine B assay; format: functional; conditions: UO-31, 48 h, read-out: Activity
MDA-MB-468 [1] = test: Growth inhibition of human MDA-MB-468 cells after 48 hrs by sulforhodamine B assay; format: functional, cell-based; conditions: MDA-MB-468, 48 h
NCI-H460 = test: Growth inhibition of human NCI-H460 cells assessed as cell growth at 10 uM after 48 hrs by sulforhodamine B assay; format: functional; conditions: NCI-H460, 48 h, read-out: Activity
RXF 393 = test: Growth inhibition of human RXF393 cells assessed as cell growth at 10 uM after 48 hrs by sulforhodamine B assay; format: functional; conditions: RXF 393, 48 h, read-out: Activity
OVCAR-3 = test: Growth inhibition of human OVCAR3 cells after 48 hrs by sulforhodamine B assay; format: functional, cell-based; conditions: OVCAR-3, 48 h
OVCAR-8 [2] = test: Growth inhibition of human OVCAR8 cells after 48 hrs by sulforhodamine B assay; format: functional; conditions: OVCAR-8, 48 h
CAKI-1 = test: Growth inhibition of human CAKI-1 cells after 48 hrs by sulforhodamine B assay; format: functional; conditions: CAKI-1, 48 h
MOLT-4 = test: Growth inhibition of human MOLT4 cells assessed as cell growth at 10 uM after 48 hrs by sulforhodamine B assay; format: functional; conditions: MOLT-4, 48 h, read-out: Activity
SW-620 = test: Growth inhibition of human SW620 cells after 48 hrs by sulforhodamine B assay; format: functional; conditions: SW-620, 48 h
UACC-62 = test: Growth inhibition of human UACC62 cells assessed as cell growth at 10 uM after 48 hrs by sulforhodamine B assay; format: functional; conditions: UACC-62, 48 h, read-out: Activity
SK-OV-3 = test: Growth inhibition of human SKOV3 cells after 48 hrs by sulforhodamine B assay; format: functional; conditions: SK-OV-3, 48 h
NCI-H226 = test: Growth inhibition of human NCI-H226 cells assessed as cell growth at 10 uM after 48 hrs by sulforhodamine B assay; format: functional; conditions: NCI-H226, 48 h, read-out: Activity
UACC-257 = test: Growth inhibition of human UACC257 cells assessed as cell growth at 10 uM after 48 hrs by sulforhodamine B assay; format: functional; conditions: UACC-257, 48 h, read-out: Activity
OVCAR-5 = test: Growth inhibition of human OVCAR5 cells assessed as cell growth at 10 uM after 48 hrs by sulforhodamine B assay; format: functional; conditions: OVCAR-5, 48 h, read-out: Activity
HOP-92 = test: Growth inhibition of human HOP92 cells after 48 hrs by sulforhodamine B assay; format: functional, cell-based; conditions: HOP-92, 48 h
786-0 = test: Growth inhibition of human 786-0 cells after 48 hrs by sulforhodamine B assay; format: functional; conditions: 786-0, 48 h
CCRF-CEM = test: Growth inhibition of human CCRF-CEM cells after 48 hrs by sulforhodamine B assay; format: functional
SK-MEL-5 [3] = test: Growth inhibition of human SK-MEL-5 cells assessed as cell growth at 10 uM after 48 hrs by sulforhodamine B assay; format: functional; conditions: SK-MEL-5, 48 h, read-out: Activity
NCI-H522 = test: Growth inhibition of human NCI-H522 cells after 48 hrs by sulforhodamine B assay; format: functional; conditions: NCI-H522, 48 h
RPMI-8226 [4] = test: Growth inhibition of human RPMI8226 cells assessed as cell growth at 10 uM after 48 hrs by sulforhodamine B assay; format: functional; conditions: RPMI-8226, 48 h, read-out: Activity
SN12C = test: Growth inhibition of human SN12C cells assessed as cell growth at 10 uM after 48 hrs by sulforhodamine B assay; format: functional; conditions: read-out: Activity
HL-60(TB) = test: Growth inhibition of human HL-60(TB) cells after 48 hrs by sulforhodamine B assay; format: functional; conditions: HL-60, 48 h
MDA-MB-468 [5] = test: Growth inhibition of human MDA-MB-468 cells assessed as cell growth at 10 uM after 48 hrs by sulforhodamine B assay; format: functional; conditions: MDA-MB-468, 48 h, read-out: Activity
K562 = test: Growth inhibition of human K562 cells assessed as cell growth at 10 uM after 48 hrs by sulforhodamine B assay; format: functional; conditions: K562, 48 h, read-out: Activity
OVCAR-4 = test: Growth inhibition of human OVCAR4 cells after 48 hrs by sulforhodamine B assay; format: functional; conditions: OVCAR-4, 48 h
TK-10 = test: Growth inhibition of human TK10 cells after 48 hrs by sulforhodamine B assay; format: functional; conditions: TK-10, 48 h
SF-539 = test: Growth inhibition of human SF539 cells assessed as cell growth at 10 uM after 48 hrs by sulforhodamine B assay; format: functional; conditions: SF-539, 48 h, read-out: Activity
T47D = test: Growth inhibition of human T47D cells assessed as cell growth at 10 uM after 48 hrs by sulforhodamine B assay; format: functional; conditions: read-out: Activity
IGROV-1 = test: Growth inhibition of human IGROV1 cells assessed as cell growth at 10 uM after 48 hrs by sulforhodamine B assay; format: functional; conditions: IGROV-1, 48 h, read-out: Activity
SK-MEL-5 [6] = test: Growth inhibition of human SK-MEL-5 cells after 48 hrs by sulforhodamine B assay; format: functional; conditions: SK-MEL-5, 48 h
OVCAR-8 [7] = test: Growth inhibition of human OVCAR8 cells assessed as cell growth at 10 uM after 48 hrs by sulforhodamine B assay; format: functional; conditions: OVCAR-8, 48 h, read-out: Activity
RPMI-8226 [8] = test: Growth inhibition of human RPMI8226 cells after 48 hrs by sulforhodamine B assay; format: functional, cell-based; conditions: RPMI-8226, 48 h
[9] = read-out: LC50 (the source's name)

O=C(Nc1cccc(-n2cc(-c3ccncc3)c(-c3ccc(Cl)c(O)c3)n2)c1)Nc1cc(C(F)(F)F)cc(C(F)(F)F)c1
growth at 10 µM (Malme-3M): -23%
growth at 10 µM (UO-31): -34.4%
GI50 (MDA-MB-468 [1]): 265 nM
pIC50 (MDA-MB-468 [1]): 6.57
TGI (MDA-MB-468 [1]): 2660 nM
CC50 (MDA-MB-468 [1]; [9]): 37100 nM
growth at 10 µM (NCI-H460): -55.7%
growth at 10 µM (RXF 393): -66.7%
GI50 (OVCAR-3): 395 nM
pIC50 (OVCAR-3): 6.40
TGI (OVCAR-3): 1200 nM
CC50 (OVCAR-3; [9]): 3310 nM
GI50 (OVCAR-8 [2]): 563 nM
TGI (OVCAR-8 [2]): 5920 nM
CC50 (OVCAR-8 [2]; [9]): 43700 nM
GI50 (CAKI-1): 1010 nM
TGI (CAKI-1): 4420 nM
CC50 (CAKI-1; [9]): 26500 nM
growth at 10 µM (MOLT-4): -18.5%
GI50 (SW-620): 1300 nM
TGI (SW-620): 5110 nM
CC50 (SW-620; [9]): 23400 nM
growth at 10 µM (UACC-62): -65.6%
GI50 (SK-OV-3): 1350 nM
TGI (SK-OV-3): 3810 nM
CC50 (SK-OV-3; [9]): > 50000 nM
growth at 10 µM (NCI-H226): 1.17%
growth at 10 µM (UACC-257): -50.9%
growth at 10 µM (OVCAR-5): -32.9%
GI50 (HOP-92): 344 nM
pIC50 (HOP-92): 6.47
LC50 (HOP-92): 8660 nM
TGI (HOP-92): 1750 nM
GI50 (786-0): 1170 nM
TGI (786-0): 3160 nM
CC50 (786-0; [9]): 18000 nM
GI50 (CCRF-CEM): 789 nM
LC50 (CCRF-CEM): > 50000 nM
TGI (CCRF-CEM): 6780 nM
growth at 10 µM (SK-MEL-5 [3]): -94.7%
GI50 (NCI-H522): 724 nM
LC50 (concentration killing 50% of cells) (NCI-H522): 12800 nM
TGI (NCI-H522): 2510 nM
growth at 10 µM (RPMI-8226 [4]): -10.9%
growth at 10 µM (SN12C): -36.1%
GI50 (HL-60(TB)): 1500 nM
TGI (HL-60(TB)): 13500 nM
CC50 (HL-60(TB); [9]): > 50000 nM
growth at 10 µM (MDA-MB-468 [5]): -23.9%
growth at 10 µM (K562): -19.6%
GI50 (OVCAR-4): 849 nM
LC50 (concentration killing 50% of cells) (OVCAR-4): 23900 nM
TGI (OVCAR-4): 5010 nM
GI50 (TK-10): 959 nM
TGI (TK-10): 3580 nM
CC50 (TK-10; [9]): 14200 nM
growth at 10 µM (SF-539): -63%
growth at 10 µM (T47D): 12.1%
growth at 10 µM (IGROV-1): 4.8%
GI50 (SK-MEL-5 [6]): 600 nM
LC50 (concentration killing 50% of cells) (SK-MEL-5 [6]): 2620 nM
TGI (SK-MEL-5 [6]): 1250 nM
growth at 10 µM (OVCAR-8 [7]): -12.2%
GI50 (RPMI-8226 [8]): 477 nM
pIC50 (RPMI-8226 [8]): 6.32
TGI (RPMI-8226 [8]): > 50000 nM
CC50 (RPMI-8226 [8]; [9]): > 50000 nM
